Marks after values point to notes of the source that are not given here.
System: p53 binding to CDKN1A
Assay: ChIP-qPCR, p53 antibody, CDKN1A gene, RCC4 cells
Type: cell-based
Set-up: p53 ChIP at CDKN1A-intron / p53 ChIP at CDKN1A-RE1 / p53 ChIP at CDKN1A-TSS: unit not given here
Details: 24 h; for p53 ChIP at CDKN1A-RE1 / p53 ChIP at CDKN1A-TSS / p53 ChIP at CDKN1A-intron: 100 μM
Method: Lysates were analyzed by immunoblots. c RCC4 cells with or without p53 KO were transfected with vector or Flag-PBRM1 at the indicated amounts. […] Cells were harvested for RT-qPCR (g) or ChIP followed by qPCR (h). […] Representative data is shown in i. Quantification of cell cycle phase is shown in j. Source data are provided as a Source Data file.
ChIP assays were performed with the Pierce Agarose ChIP Kit (26156, Thermo Scientific) according to the manufacturer’s instructions with minor revisions. In brief, samples were crosslinked with 1% paraformaldehyde and halted by 125 mM glycine. After washing twice with ice-cold PBS, cells were harvested and suspended in Lysis Buffer 1 and incubated on ice for 10 min. 1 × 10^7 nuclei were resuspended in 500 μl MNase Digestion Buffer containing 6.25 U Micrococcal Nuclease and incubated at 37 °C for 15 min. After the reaction was stopped, nuclei were pelleted by centrifugation and resuspended in 250 μl Lysis Buffer 2. Nuclei were sonicated at 10% amplitude for 10 s twice and incubated on ice for 30 min. After centrifugation, 50 μl supernatant containing the digested chromatin from 2 × 10^6 nuclei was diluted in 1× IP Dilution Buffer and incubated with antibodies (normal rabbit IgG for control, 1 μg FL393 + 1 μg DO-1 for p53 or 2 μg Flag M2 for Flag-PBRM1) overnight at 4 °C. […] of ChIP Grade Protein A/G Plus Agarose was added and incubated for 1 h at 4 °C. The agarose resins were washed once with IP Wash Buffer 1, twice with IP Wash Buffer 2 and once with IP Wash Buffer 3. 150 μl 1× IP Elution Buffer was added to the washed resin and incubated at 65 °C for 30 min with shaking. The eluate was treated with Proteinase K and DNA was extracted with columns provided in the kit.

Compound: COc1cc([C@@H]2c3cc4c(cc3[C@@H](O[C@@H]3O[C@@H]5CO[C@@H](C)O[C@H]5[C@H](O)[C@H]3O)[C@H]3COC(=O)[C@H]23)OCO4)cc(OC)c1O [Etoposide]
- p53 binding to CDKN1A RE1 with PBRM1 (100 μM etoposide, RCC4): significantly enhanced by wild-type but not BD4* mutant PBRM1
- p53 ChIP at CDKN1A-RE1 (RCC4-GFP, assay 1): 1.555
- p53 ChIP at CDKN1A-TSS (RCC4-GFP, assay 1): 0.1782
- p53 ChIP at CDKN1A-intron (RCC4-GFP, assay 1): 0.077
- p53 ChIP at CDKN1A-RE1 (RCC4-GFP, assay 2): 1.8621
- p53 ChIP at CDKN1A-TSS (RCC4-GFP, assay 2): 0.1891
- p53 ChIP at CDKN1A-intron (RCC4-GFP, assay 2): 0.0504
- p53 ChIP at CDKN1A-RE1 (RCC4-GFP, assay 3): 1.9888
- p53 ChIP at CDKN1A-TSS (RCC4-GFP, assay 3): 0.2677
- p53 ChIP at CDKN1A-intron (RCC4-GFP, assay 3): 0.06
- p53 ChIP at CDKN1A-RE1 (RCC4-PBRM1-BD4*, assay 1): 1.5332
- p53 ChIP at CDKN1A-TSS (RCC4-PBRM1-BD4*, assay 1): 0.1764
- p53 ChIP at CDKN1A-intron (RCC4-PBRM1-BD4*, assay 1): 0.0801
- p53 ChIP at CDKN1A-RE1 (RCC4-PBRM1-BD4*, assay 2): 1.7924
- p53 ChIP at CDKN1A-TSS (RCC4-PBRM1-BD4*, assay 2): 0.1865
- p53 ChIP at CDKN1A-intron (RCC4-PBRM1-BD4*, assay 2): 0.0517
- p53 ChIP at CDKN1A-RE1 (RCC4-PBRM1-BD4*, assay 3): 1.8343
- p53 ChIP at CDKN1A-TSS (RCC4-PBRM1-BD4*, assay 3): 0.221
- p53 ChIP at CDKN1A-intron (RCC4-PBRM1-BD4*, assay 3): 0.0545
- p53 ChIP at CDKN1A-RE1 (RCC4-PBRM1, assay 1): 1.8428
- p53 ChIP at CDKN1A-TSS (RCC4-PBRM1, assay 1): 0.2655
- p53 ChIP at CDKN1A-intron (RCC4-PBRM1, assay 1): 0.0601
- p53 ChIP at CDKN1A-RE1 (RCC4-PBRM1, assay 2): 2.4571
- p53 ChIP at CDKN1A-TSS (RCC4-PBRM1, assay 2): 0.2336
- p53 ChIP at CDKN1A-intron (RCC4-PBRM1, assay 2): 0.0759
- p53 ChIP at CDKN1A-RE1 (RCC4-PBRM1, assay 3): 2.4942
- p53 ChIP at CDKN1A-TSS (RCC4-PBRM1, assay 3): 0.2293
- p53 ChIP at CDKN1A-intron (RCC4-PBRM1, assay 3): 0.0609
